Measurements published in paper PMC9917406, “Synthesis, Biological and In Silico Studies of Griseofulvin and Usnic Acid Sulfonamide Derivatives as Fungal, Bacterial and Human Carbonic Anhydrase Inhibitors” (International Journal of Molecular Sciences, 2023).
Read-outs that look alike come from different tables or passages of the source.

Assays:
Assay type in all cases: biochemical
hCA II = hCA II (Homo sapiens, UniProt P00918); assay: stopped-flow CO2 hydrase assay, hCA II; settings: for Ki: mean from 3 different assays, errors ±5–10%; for selectivity index (SI) towards hCA I: hCA II inhibition relative to hCA I; for selectivity index (SI) towards hCA IX: hCA II inhibition relative to hCA IX
hCA IX = hCA IX (Homo sapiens, UniProt Q16790); assay: stopped-flow CO2 hydrase assay, hCA IX; settings: mean from 3 different assays, errors ±5–10%; read-out: KI hCAIX
PgiCAβ = target: T1, PgiCAβ (Porphyromonas gingivalis, UniProt B2RL07); assay: stopped-flow CO2 hydrase assay, PgiCAβ; settings: mean from 3 different assays, errors ±5–10%
T1 sequence (B2RL07 19-242): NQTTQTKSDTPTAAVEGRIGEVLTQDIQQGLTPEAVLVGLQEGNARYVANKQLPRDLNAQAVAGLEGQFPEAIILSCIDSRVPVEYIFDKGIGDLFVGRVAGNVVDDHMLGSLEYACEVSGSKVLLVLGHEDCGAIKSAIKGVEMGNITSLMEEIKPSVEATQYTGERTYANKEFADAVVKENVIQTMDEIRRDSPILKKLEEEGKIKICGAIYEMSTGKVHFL

MgCA = target: T2, MgCA (Malassezia globosa, UniProt A8Q1N3); assay: stopped-flow CO2 hydrase assay, MgCA; settings: mean from 3 different assays, errors ±5–10%
T2 sequence (A8Q1N3 1-241): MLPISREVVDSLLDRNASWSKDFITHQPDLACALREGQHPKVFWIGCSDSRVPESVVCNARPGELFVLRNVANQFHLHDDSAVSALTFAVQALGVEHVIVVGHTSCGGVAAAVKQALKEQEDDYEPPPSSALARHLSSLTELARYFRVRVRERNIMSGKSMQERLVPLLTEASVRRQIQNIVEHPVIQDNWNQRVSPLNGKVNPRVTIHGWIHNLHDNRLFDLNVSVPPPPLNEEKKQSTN

CpsCAγ = CpsCAγ (Colwellia psychrerythraea, UniProt Q48AV3); assay: biochemical
hCA I = hCA I (Homo sapiens, UniProt P00915); assay: stopped-flow CO2 hydrase assay, hCA I; settings: mean from 3 different assays, errors ±5–10%
PgiCAγ = target: T3, PgiCAγ (Porphyromonas gingivalis, UniProt Q7MV79); assay: stopped-flow CO2 hydrase assay, PgiCAγ; settings: for Ki: mean from 3 different assays, errors ±5–10%
T3 sequence (Q7MV79 1-192): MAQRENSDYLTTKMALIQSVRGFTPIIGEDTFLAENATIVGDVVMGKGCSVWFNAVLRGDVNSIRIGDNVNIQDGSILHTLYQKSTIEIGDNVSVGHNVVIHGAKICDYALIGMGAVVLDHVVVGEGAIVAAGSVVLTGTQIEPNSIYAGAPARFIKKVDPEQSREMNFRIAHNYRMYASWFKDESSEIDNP

SmuCA = target: T4, SmuCA (Streptococcus mutans, UniProt Q8DVY1); assay: stopped-flow CO2 hydrase assay, SmuCA; settings: for Ki: mean from 3 different assays, errors ±5–10%
T4 sequence (Q8DVY1 1-166): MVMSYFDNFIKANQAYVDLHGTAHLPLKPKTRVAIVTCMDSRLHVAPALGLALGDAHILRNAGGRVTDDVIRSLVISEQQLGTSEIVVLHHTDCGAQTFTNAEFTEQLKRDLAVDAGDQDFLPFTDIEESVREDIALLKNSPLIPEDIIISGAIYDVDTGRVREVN

BpsCAγ = BpsCAγ (Burkholderia pseudomallei, UniProt Q63SQ4); settings: read-out: KI BpsCAγ
[1] = mean from 3 different assays, errors ±5–10%, read-out: KI CpsCAγ

Chain of BpsCAγ (Q63SQ4 1-174): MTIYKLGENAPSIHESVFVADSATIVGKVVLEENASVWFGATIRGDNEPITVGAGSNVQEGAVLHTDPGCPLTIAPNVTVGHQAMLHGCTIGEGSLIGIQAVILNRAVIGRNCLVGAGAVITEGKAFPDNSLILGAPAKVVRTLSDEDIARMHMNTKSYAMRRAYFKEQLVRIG
Chain of CpsCAγ (Q48AV3 entry or part of it): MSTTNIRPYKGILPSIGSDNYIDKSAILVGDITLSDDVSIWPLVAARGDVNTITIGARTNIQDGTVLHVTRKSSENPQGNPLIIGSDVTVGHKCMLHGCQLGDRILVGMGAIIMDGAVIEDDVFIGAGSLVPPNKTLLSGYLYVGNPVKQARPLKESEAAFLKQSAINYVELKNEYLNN
Chain of hCA I (P00915 whole entry): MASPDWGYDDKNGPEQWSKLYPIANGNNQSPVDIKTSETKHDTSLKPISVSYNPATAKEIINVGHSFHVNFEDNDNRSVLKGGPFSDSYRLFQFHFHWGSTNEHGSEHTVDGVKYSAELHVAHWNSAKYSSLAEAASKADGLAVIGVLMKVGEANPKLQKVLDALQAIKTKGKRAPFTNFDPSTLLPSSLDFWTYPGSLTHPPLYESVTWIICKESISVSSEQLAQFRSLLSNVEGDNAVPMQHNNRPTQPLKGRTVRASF

Row | Structure (SMILES) | Ki (hCA II) | Ki (hCA IX) | Ki (PgiCAβ) | Ki (MgCA) | Ki (CpsCAγ) | Ki (hCA I) | SI towards PgiCAβ (PgiCAγ; PgiCAγ inhibition relative to PgiCAβ) | fold more active than acetazolamide (PgiCAγ; against PgiCAγ) | Ki (PgiCAγ) | Ki (SmuCA) | Ki (BpsCAγ) | SI towards all other bacterial strains (SmuCA; S. mutans CA inhibition relative to other bacterial CAs) | selectivity index (SI) towards hCA I (hCA II) | selectivity index (SI) towards hCA IX (hCA II) | Ki (CpsCAγ; [1]) | SI towards BpsCAγ (CpsCAγ; CpsCAγ inhibition relative to BpsCAγ) | SI towards PgiCAγ (CpsCAγ; CpsCAγ inhibition relative to PgiCAγ) | SI towards S. mutans (CpsCAγ; CpsCAγ inhibition relative to S. mutans CA)
1 | COc1cc(OC)c2c(c1Cl)OC1(C(=O)C=C(NCCS(N)(=O)=O)CC1C)C2=O [Compound 1a, 2-(((2S,6′R)-7-chloro-4,6-dimethoxy-6′-methyl-2′,3-dioxo-3H-spiro[benzofuran-2,1′-cyclohexan]-3′-en-4′-yl)amino)ethane-1-sulfonamide] | 0.653 µM | 0.0312 µM | 0.779 µM | 0.544 µM | 3.15 µM | 0.562 µM | 8.5 | 3.5 fold | 0.0921 µM | 1.63 µM | 0.448 µM | – | – | – | – | – | – | –
2 | COc1cc(OC)c2c(c1Cl)OC1(C(=O)C=C(Nc3ccc(S(N)(=O)=O)cc3)CC1C)C2=O [Compound 1b, 4-(((2S,6′R)-7-chloro-4,6-dimethoxy-6′-methyl-2′,3-dioxo-3H-spiro[benzofuran-2,1′-cyclohexan]-3′-en-4′-yl)amino)benzenesulfonamide] | 0.0644 µM | 0.203 µM | 0.819 µM | 0.476 µM | 0.939 µM | 0.234 µM | – | – | 0.82 µM | 0.294 µM | 0.945 µM | 3 | – | – | – | – | – | –
3 | COc1cc(OC)c2c(c1Cl)OC1(C(=O)C=C(NCc3ccc(S(N)(=O)=O)cc3)CC1C)C2=O [Compound 1c, 4-((((2S,6′R)-7-chloro-4,6-dimethoxy-6′-methyl-2′,3-dioxo-3H-spiro[benzofuran-2,1′-cyclohexan]-3′-en-4′-yl)amino)methyl)benzenesulfonamide] | 0.0291 µM | 0.102 µM | 0.896 µM | 0.568 µM | 0.9 µM | 0.0746 µM | – | – | 0.661 µM | 4 µM | 0.833 µM | – | – | – | – | – | – | –
4 | COc1cc(OC)c2c(c1Cl)OC1(C(=O)C=C(Nc3ccc(S(N)(=O)=O)cc3O)CC1C)C2=O [Compound 1d, 4-(((2S,6′R)-7-chloro-4,6-dimethoxy-6′-methyl-2′,3-dioxo-3H-spiro[benzofuran-2,1′-cyclohexan]-3′-en-4′-yl)amino)-3-hydroxybenzenesulfonamide] | 0.0049 µM | 0.0294 µM | 1.28 µM | 1.59 µM | 0.591 µM | 0.0288 µM | – | – | 0.584 µM | 0.897 µM | 0.878 µM | – | 5.88 | 6.00 | – | – | – | –
5 | COc1cc(OC)c2c(c1Cl)O[C@@]1(C(=O)/C(=C\NCc3ccc(S(N)(=O)=O)cc3)C(=O)C[C@H]1C)C2=O [Compound 1e] | 0.165 µM | 0.0292 µM | 0.94 µM | 1.83 µM | 0.22 µM | 0.32 µM | – | – | 1.27 µM | 1.64 µM | 1.06 µM | – | – | – | – | – | – | –
6 | COc1cc(OC)c2c(c1Cl)O[C@@]1(C(=O)C(=CNCCc3ccc(S(N)(=O)=O)cc3)C(=O)C[C@H]1C)C2=O [Compound 1f, 4-(2-((((2R,2′R)-7-chloro-4,6-dimethoxy-2′-methyl-3,4′,6′-trioxo-3H-spiro[benzofuran-2,1′-cyclohexan]-5′-ylidene)methyl)amino)ethyl)benzenesulfonamide] | 0.0708 µM | 0.0306 µM | 8.36 µM | 4 µM | 0.726 µM | 0.348 µM | – | – | 0.602 µM | 2.47 µM | 2.28 µM | – | – | – | – | – | – | –
7 | COc1cc(C(CC(=O)NCCS(N)(=O)=O)C2C(=O)C[C@@H](C)[C@]3(Oc4c(Cl)c(OC)cc(OC)c4C3=O)C2=O)ccc1O (stereo partly drawn) [Compound 1g] | 4.05 µM | 0.71 µM | 5.59 µM | 3.15 µM | – | 2.99 µM | – | – | 2.22 µM | 1.22 µM | 2.33 µM | – | – | – | 0.301 µM | – | – | –
8 | COc1cc(OC)c2c(c1Cl)O[C@]1(C2=O)C(=O)C(C(CC(=O)NCc2ccc(S(N)(=O)=O)cc2)c2ccc(SC)cc2)C(=O)C[C@H]1C (stereo partly drawn) [Compound 1h] | 0.0075 µM | 0.0737 µM | 5.75 µM | 4.35 µM | – | 0.0411 µM | – | – | 0.853 µM | 0.58 µM | 1.4 µM | – | – | – | 0.625 µM | – | – | –
9 | COc1cc(OC)c2c(c1Cl)O[C@]1(C2=O)C(=O)C(C(CC(=O)NCCc2ccc(S(N)(=O)=O)cc2)c2ccc(SC)cc2)C(=O)C[C@H]1C (stereo partly drawn) [Compound 1i, 3-((2S,2′R)-7-chloro-4,6-dimethoxy-2′-methyl-3,4′,6′-trioxo-3H-spiro[benzofuran-2,1′-cyclohexan]-5′-yl)-3-(4-(methylthio)phenyl)-N-(4-sulfamoylphenethyl)propenamide] | 0.0081 µM | 0.0233 µM | 0.506 µM | 1.91 µM | – | 0.0153 µM | – | – | 0.854 µM | 0.889 µM | 1.04 µM | – | – | – | 0.804 µM | – | – | –
10 | COc1cc(OC)c2c(c1Cl)O[C@]1(C2=O)C(=O)C(C(CC(=O)NCC(=O)Nc2ccc(S(N)(=O)=O)cc2)c2ccc(SC)cc2)C(=O)C[C@H]1C (stereo partly drawn) [Compound 1j, 3-((2S,2′R)-7-chloro-4,6-dimethoxy-2′-methyl-3,4′,6′-trioxo-3H-spiro[benzofuran-2,1′-cyclohexan]-5′-yl)-3-(4-(methylthio)phenyl)-N-(2-oxo-2-((4-sulfamoylphenyl)amino)ethyl)propenamide] | 0.0057 µM | 0.0225 µM | 3 µM | 2.05 µM | – | 0.0277 µM | – | – | 2.32 µM | 1.23 µM | 0.711 µM | – | – | – | 0.177 µM | 4 | 13 | 6.9
11 | CC(=O)c1c(O)c(C)c(O)c2c1OC1=CC(=O)C(=C(C)Nc3ccc(S(N)(=O)=O)cc3O)C(=O)[C@@]12C [Compound 4a, (R)-4-((1-(6-acetyl-7,9-dihydroxy-8,9b-dimethyl-1,3-dioxo-3,9b-dihydrodibenzo[b,d]furan-2(1H)-ylidene)ethyl)amino)-3-hydroxybenzenesulfonamide] | 0.0084 µM | 0.0669 µM | 0.888 µM | 3.43 µM | 0.723 µM | 0.37 µM | – | – | 0.897 µM | 0.841 µM | 0.473 µM | – | 43.9 | 7.96 | – | – | – | –
12 | CC(=O)c1c(O)c(C)c(O)c2c1OC1=CC(=O)C(=C(C)Nc3cc(S(N)(=O)=O)ccc3O)C(=O)[C@@]12C [Compound 4b, (R)-3-((1-(6-acetyl-7,9-dihydroxy-8,9b-dimethyl-1,3-dioxo-3,9b-dihydrodibenzo[b,d]furan-2(1H)-ylidene)ethyl)amino)-4-hydroxybenzenesulfonamide] | 0.755 µM | 0.305 µM | 0.766 µM | 2.5 µM | 0.809 µM | – | – | – | 1.84 µM | 1.7 µM | 1 µM | – | – | – | – | – | – | –
